Assay results from patent US20240299481A1, “STEPHANIA CEPHARANTHA-DERIVED ALKALOID-CONTAINING PREPARATION” (JAPAN AS REPRESENTED BY DIRECTOR-GENERAL OF NATIONAL …, priority 2021, published 2024).

Legend:
SARS coronavirus = conditions: cited from earlier work
[1] = test system: Novel coronavirus SARS-COV-2 Wk-521 strains (Wuhan strain); assay type: cell-based; conditions: for antiviral effect compared with the preparation / other alkaloids: Wuhan strain, VeroE6/TMPRSS2 cells
[2] = test system: human coronavirus OC43 strain; conditions: early stage of infection in cells, MRC-5 human lung cells; cited from earlier work
VeroE6/TMPRSS2 cells = assay type: cell-based; conditions: 24 hours, FIG. 2A-2E
Description: VeroE6/TMPRSS2 cells were cultured at 37° C. in 5% of a CO2 atmosphere by using Dulbecco's Modified Eagle's Medium (DMEM, Life Technologies Corporation) added with 10% of a fetal bovine serum (FBS, Cell Culture Bioscience Corporation), 100 units/ml of penicillin, 100 μg/ml of streptomycin, 10 mM of HEPES (pH7.4) and 1 mg/ml of G418 disulfate (Nacalai Tesque, Inc.). In infection tests, it was changed to 2% of FBS and no G418 disulfate was added.
The Stephania cepharantha-derived alkaloid-containing preparation, Cepharanthine, Isotetrandrine, Cycleanine, or Berbamine were added to the medium of the VeroE6/TMPRSS2 cells and, and the cells cultured for 24 hours were fixed with 4% of paraformaldehyde, and nucleuses were stained with DAPI. Thereafter, the number of viable cells were measured using an ImageXpress Micro Confocal (Molecular Device, LLC).

SMILES | antiviral effect against the SARS coronavirus (SARS coronavirus) | antiviral effect (number of viral RNA with increasing addition concentration) [1] | antiviral effect compared with the preparation / other alkaloids [1] | antiviral effects on the human coronavirus OC43 strain [2] | cytotoxic effect (number of viable cells with increasing addition concentration) (VeroE6/TMPRSS2 cells)
COc1ccc2cc1Oc1ccc(cc1)C[C@H]1c3c(cc4c(c3Oc3cc5c(cc3OC)CCN(C)[C@@H]5C2)OCO4)CCN1C [Cepharanthine] | has an antiviral effect | showed antiviral effects | comparable to the Stephania cepharantha-derived alkaloid-containing preparation | have antiviral effects | showed cytotoxic effects
COc1cc2c3cc1Oc1c(OC)c(OC)cc4c1[C@@H](Cc1ccc(O)c(c1)Oc1ccc(cc1)C[C@@H]3N(C)CC2)N(C)CC4 [Berbamine] | – | showed antiviral effects | weak antiviral effect | – | showed cytotoxic effects
COc1cc2c3c(c1OC)Oc1ccc(cc1)C[C@@H]1c4c(cc(OC)c(OC)c4Oc4ccc(cc4)C[C@H]3N(C)CC2)CCN1C [Cycleanine] | – | showed antiviral effects | comparable to the Stephania cepharantha-derived alkaloid-containing preparation | – | showed cytotoxic effects
COc1ccc2cc1Oc1ccc(cc1)C[C@H]1c3cc(c(OC)cc3CCN1C)Oc1c(OC)c(OC)cc3c1[C@@H](C2)N(C)CC3 [Isotetrandrine] | – | showed antiviral effects | comparable to the Stephania cepharantha-derived alkaloid-containing preparation | – | showed cytotoxic effects
